What was measured:
CDK2/CycA = CDK2/CycA (Homo sapiens, UniProt P24941); assay: CDK2/CycA kinase assay; type: biochemical; settings: 10 μM compound; read-out: CDK2/CycA percent of inhibition
Experimental: (§1) General description of the kinase assays: the kinase activity was assayed in 96-well microtiter plates at a final compound concentration of 10 μM in a total volume of 50 μl. Compounds were dissolved in 100% DMSO to prepare a 10 mM stock solution and than diluted with buffer to reach a 10 μM (or the required) final concentration. The kinase concentration was used to yield 10% ATP turn over. The ATP concentration was used at the KmATP and 12.5 μCi/ml adenosine 5′[γ-33P]triphosphate. The substrate concentration was used at 5 fold excess over the Km for the substrate. The reaction was incubated for 1 hour at room temperature and stopped by addition of 10 μl 50 mM EDTA. The assay was transferred to a 96 well MAPH filter plate (Millipore). The radioactivity was counted on a Microbeta microplate counter.

CK1-alpha = CK1-alpha (Homo sapiens, UniProt P48729); assay: CK1-alpha kinase assay; type: biochemical; settings: 10 μM compound; read-out: CK1-alpha percent of inhibition
Sequence of CK1-alpha (P48729 whole entry): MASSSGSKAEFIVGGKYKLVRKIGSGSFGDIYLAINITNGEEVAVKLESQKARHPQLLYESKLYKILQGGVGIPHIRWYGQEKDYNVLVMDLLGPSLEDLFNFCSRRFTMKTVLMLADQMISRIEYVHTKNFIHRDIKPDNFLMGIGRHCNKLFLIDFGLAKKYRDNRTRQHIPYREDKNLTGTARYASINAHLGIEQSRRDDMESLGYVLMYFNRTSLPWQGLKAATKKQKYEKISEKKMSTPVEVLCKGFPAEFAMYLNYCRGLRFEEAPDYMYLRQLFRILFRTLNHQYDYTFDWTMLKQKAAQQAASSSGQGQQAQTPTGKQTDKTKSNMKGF
Experimental: as §1

Kit = Kit (Homo sapiens, UniProt P10721); assay: Kit kinase assay; type: biochemical; settings: 10 μM compound; read-out: Kit percent of inhibition
Experimental: as §1

cMet = cMet (Homo sapiens, UniProt P08581); assay: cMet kinase assay; type: biochemical; settings: 10 μM compound; read-out: cMet percent of inhibition
Experimental: as §1

ROCK2 = ROCK2 (Homo sapiens, UniProt O75116); assay: ROCK2 kinase assay; type: biochemical; settings: 10 μM compound; read-out: ROCK2 percent of inhibition
Experimental: as §1

P56Lck = P56Lck (Homo sapiens, UniProt P06239); assay: P56Lck kinase assay; type: biochemical; settings: 10 μM compound; read-out: P56Lck percent of inhibition
Experimental: as §1

Jnk1a1 = Jnk1a1 (Homo sapiens, UniProt P45983); assay: Jnk1a1 kinase assay; type: biochemical; settings: 10 μM compound; read-out: Jnk1a1 percent of inhibition
Experimental: as §1

RSK1 = RSK1 (Homo sapiens, UniProt Q15418); assay: RSK1 kinase assay; type: biochemical; settings: 10 μM compound; read-out: RSK1 percent of inhibition
Experimental: as §1

MAPK-ERK1 = MAPK-ERK1 (Homo sapiens, UniProt P27361); assay: MAPK-ERK1 kinase assay; type: biochemical; settings: 10 μM compound; read-out: MAPK-ERK1 percent of inhibition
Experimental: as §1

AKT1/PKBa = AKT1/PKBa (Homo sapiens, UniProt P31749); assay: AKT1/PKBa kinase assay; type: biochemical; settings: 10 μM compound; read-out: AKT1/PKBa percent of inhibition
Sequence of AKT1/PKBa (P31749 whole entry): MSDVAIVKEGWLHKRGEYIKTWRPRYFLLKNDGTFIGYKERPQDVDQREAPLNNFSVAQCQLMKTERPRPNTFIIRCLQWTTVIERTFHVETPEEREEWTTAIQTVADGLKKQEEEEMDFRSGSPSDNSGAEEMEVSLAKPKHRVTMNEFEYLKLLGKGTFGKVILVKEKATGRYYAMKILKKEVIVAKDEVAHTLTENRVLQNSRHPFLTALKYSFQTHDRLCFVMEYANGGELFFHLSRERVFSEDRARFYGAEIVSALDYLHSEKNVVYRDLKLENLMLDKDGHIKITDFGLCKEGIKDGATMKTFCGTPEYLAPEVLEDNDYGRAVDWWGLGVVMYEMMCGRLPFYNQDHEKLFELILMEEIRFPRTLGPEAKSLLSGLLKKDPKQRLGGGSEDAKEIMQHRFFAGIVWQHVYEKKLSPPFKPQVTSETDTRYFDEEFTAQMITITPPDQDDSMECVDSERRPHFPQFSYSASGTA
Experimental: as §1

PDGFR-beta = PDGFR-beta (Homo sapiens, UniProt P09619); assay: PDGFR-beta kinase assay; type: biochemical; settings: 10 μM compound; read-out: PDGFR-beta percent of inhibition
Experimental: as §1

c-Src = c-Src (Homo sapiens, UniProt P12931); assay: c-Src kinase assay; type: biochemical; settings: 10 μM compound; read-out: c-Src percent of inhibition
Experimental: as §1

EGFR = EGFR (Homo sapiens, UniProt P00533); assay: EGFR kinase assay (33P-ATP filter plate); type: biochemical; settings: for inhibition at 10 µM: 10 μM compound, read-out: EGFR percent of inhibition; for IC50: EGFR-PTK assay
Experimental: as §1

P70S6K = P70S6K (Homo sapiens, UniProt P23443); assay: P70S6K kinase assay; type: biochemical; settings: 10 μM compound; read-out: P70S6K percent of inhibition
Sequence of P70S6K (P23443 whole entry): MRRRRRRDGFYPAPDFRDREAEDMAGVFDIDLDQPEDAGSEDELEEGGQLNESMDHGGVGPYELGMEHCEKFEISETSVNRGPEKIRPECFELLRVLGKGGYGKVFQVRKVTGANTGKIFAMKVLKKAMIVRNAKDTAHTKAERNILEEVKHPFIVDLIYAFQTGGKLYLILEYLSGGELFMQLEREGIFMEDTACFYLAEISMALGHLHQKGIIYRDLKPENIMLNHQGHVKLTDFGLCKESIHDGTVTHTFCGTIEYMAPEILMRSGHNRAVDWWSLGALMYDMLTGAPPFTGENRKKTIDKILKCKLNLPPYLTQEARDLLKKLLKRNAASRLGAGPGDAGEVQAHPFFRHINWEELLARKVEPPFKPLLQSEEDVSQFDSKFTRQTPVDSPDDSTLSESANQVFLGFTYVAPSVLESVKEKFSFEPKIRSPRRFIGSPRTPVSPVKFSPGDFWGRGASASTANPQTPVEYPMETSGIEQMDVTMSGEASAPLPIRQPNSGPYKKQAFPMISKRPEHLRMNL
Experimental: as §1

c-Raf = c-Raf (Homo sapiens, UniProt P04049); assay: c-Raf kinase assay; type: biochemical; settings: 10 μM compound; read-out: c-Raf percent of inhibition
Experimental: as §1

Abl = Abl (Homo sapiens, UniProt P00519); assay: Abl kinase assay; type: biochemical; settings: 10 μM compound; read-out: Abl percent of inhibition
Sequence of Abl (P00519 whole entry, species assumed): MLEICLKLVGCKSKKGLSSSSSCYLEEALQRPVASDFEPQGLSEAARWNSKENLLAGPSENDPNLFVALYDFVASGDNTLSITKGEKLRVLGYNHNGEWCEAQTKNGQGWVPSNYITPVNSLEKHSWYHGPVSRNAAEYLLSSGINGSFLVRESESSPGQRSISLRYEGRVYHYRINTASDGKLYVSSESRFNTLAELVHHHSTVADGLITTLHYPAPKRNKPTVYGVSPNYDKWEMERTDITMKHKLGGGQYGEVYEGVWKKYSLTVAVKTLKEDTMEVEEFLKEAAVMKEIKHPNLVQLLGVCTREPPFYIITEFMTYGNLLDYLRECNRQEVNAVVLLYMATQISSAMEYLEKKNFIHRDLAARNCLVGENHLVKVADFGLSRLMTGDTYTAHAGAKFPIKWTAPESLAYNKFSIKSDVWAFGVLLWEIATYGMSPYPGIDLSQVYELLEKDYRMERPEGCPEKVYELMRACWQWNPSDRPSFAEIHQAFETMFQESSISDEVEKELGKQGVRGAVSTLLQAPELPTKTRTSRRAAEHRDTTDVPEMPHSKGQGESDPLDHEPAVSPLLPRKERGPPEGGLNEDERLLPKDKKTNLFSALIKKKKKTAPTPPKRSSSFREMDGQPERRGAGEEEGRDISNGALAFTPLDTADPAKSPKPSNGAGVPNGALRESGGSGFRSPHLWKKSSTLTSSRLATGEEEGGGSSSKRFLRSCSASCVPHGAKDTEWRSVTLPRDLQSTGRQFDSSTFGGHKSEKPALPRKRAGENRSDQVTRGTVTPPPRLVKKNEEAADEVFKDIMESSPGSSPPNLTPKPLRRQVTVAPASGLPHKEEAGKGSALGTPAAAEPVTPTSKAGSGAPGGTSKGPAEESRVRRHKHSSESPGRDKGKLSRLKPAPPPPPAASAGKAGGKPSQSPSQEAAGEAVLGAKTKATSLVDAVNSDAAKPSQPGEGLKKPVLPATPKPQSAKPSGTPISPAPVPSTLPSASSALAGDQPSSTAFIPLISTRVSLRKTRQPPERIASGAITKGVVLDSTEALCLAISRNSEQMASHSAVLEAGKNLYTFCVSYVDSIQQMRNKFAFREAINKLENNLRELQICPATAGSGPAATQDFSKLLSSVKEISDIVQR
Experimental: as §1

SRPK1 = SRPK1 (Homo sapiens, UniProt Q96SB4); assay: SRPK1 kinase assay; type: biochemical; settings: 10 μM compound; read-out: SRPK1 percent of inhibition
Sequence of SRPK1 (Q96SB4 whole entry, species assumed): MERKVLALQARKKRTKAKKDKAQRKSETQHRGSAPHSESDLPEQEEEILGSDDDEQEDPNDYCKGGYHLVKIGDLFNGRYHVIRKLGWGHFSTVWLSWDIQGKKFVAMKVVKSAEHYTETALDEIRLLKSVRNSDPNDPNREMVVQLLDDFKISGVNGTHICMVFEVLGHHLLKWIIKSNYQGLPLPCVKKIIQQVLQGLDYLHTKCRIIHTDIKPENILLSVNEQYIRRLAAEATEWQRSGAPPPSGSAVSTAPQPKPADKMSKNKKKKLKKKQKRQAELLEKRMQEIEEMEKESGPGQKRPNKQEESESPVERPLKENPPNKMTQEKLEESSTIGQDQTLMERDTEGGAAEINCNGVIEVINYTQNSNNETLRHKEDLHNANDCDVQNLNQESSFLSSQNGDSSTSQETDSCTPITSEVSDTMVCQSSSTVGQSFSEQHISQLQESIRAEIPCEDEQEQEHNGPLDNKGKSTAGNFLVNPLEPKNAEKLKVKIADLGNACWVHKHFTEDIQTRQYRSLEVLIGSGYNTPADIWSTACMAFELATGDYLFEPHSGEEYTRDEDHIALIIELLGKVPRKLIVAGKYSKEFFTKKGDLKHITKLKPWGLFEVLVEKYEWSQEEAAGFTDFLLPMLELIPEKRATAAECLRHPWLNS
Experimental: as §1

InsR = InsR (Homo sapiens, UniProt P06213); assay: InsR kinase assay; type: biochemical; settings: 10 μM compound; read-out: InsR percent of inhibition
Sequence of InsR (P06213 28-1382, species assumed): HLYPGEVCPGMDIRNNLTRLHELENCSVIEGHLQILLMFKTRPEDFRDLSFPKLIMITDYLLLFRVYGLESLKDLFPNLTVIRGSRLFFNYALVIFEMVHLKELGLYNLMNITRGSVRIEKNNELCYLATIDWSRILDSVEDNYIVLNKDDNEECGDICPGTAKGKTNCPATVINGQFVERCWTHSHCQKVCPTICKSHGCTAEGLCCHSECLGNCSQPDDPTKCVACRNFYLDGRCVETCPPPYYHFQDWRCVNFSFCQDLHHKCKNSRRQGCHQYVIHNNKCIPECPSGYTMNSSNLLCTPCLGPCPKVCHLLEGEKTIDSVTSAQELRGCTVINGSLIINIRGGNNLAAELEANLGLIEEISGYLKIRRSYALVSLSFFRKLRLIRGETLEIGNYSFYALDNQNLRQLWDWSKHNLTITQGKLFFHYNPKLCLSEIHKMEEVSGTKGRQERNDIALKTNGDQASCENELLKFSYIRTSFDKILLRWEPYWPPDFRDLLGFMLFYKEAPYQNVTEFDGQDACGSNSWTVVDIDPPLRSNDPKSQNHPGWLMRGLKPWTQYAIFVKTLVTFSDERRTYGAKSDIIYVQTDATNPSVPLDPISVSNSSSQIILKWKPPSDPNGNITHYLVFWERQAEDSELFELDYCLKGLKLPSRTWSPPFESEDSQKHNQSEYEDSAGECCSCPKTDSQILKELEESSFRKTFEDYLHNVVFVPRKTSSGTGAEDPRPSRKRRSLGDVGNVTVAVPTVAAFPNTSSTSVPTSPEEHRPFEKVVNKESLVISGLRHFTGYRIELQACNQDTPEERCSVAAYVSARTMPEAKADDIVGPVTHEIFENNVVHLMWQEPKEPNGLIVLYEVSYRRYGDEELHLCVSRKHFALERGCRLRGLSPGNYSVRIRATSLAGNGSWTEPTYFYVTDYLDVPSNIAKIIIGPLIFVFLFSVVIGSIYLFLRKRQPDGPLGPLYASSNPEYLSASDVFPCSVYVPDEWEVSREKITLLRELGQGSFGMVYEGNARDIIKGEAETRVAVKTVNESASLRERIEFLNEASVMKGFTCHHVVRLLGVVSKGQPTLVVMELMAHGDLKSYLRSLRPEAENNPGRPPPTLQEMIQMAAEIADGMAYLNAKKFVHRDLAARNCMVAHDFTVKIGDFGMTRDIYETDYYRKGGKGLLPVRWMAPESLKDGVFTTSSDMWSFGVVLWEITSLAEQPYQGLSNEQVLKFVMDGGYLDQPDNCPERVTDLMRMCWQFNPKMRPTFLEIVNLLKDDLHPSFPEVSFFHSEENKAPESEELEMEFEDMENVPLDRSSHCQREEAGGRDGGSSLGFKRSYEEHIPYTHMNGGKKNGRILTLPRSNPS
Experimental: as §1

IKK-beta = molecular target: T1, IKK-beta (Homo sapiens, UniProt O14920); assay: IKK-beta kinase assay; type: biochemical; settings: 10 μM compound; read-out: IKK-beta percent of inhibition
T1 sequence (O14920 1-756): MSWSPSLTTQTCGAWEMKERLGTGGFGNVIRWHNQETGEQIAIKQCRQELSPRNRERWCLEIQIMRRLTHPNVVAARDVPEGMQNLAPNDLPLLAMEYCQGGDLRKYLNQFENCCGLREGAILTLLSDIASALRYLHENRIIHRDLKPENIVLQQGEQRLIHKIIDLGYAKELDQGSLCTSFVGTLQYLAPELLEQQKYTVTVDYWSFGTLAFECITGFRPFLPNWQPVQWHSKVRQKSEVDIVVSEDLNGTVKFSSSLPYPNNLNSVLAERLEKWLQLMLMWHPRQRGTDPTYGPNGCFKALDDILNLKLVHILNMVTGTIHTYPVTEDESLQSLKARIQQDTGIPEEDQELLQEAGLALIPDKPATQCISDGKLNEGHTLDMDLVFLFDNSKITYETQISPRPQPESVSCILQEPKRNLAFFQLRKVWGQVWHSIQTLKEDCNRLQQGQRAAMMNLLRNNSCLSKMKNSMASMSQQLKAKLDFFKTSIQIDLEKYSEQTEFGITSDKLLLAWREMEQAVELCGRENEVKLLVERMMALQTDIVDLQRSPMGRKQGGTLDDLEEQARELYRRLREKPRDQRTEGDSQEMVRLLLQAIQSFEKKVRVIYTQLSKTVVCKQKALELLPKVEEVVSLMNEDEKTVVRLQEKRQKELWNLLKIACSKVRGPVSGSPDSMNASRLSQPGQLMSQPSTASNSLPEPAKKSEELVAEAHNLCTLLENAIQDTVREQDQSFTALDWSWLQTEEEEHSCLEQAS
Experimental: as §1

GSK-3beta = GSK-3beta (Homo sapiens, UniProt P49841); assay: GSK-3beta kinase assay; type: biochemical; settings: 10 μM compound; read-out: GSK-3beta percent of inhibition
Sequence of GSK-3beta (P49841 whole entry, species assumed): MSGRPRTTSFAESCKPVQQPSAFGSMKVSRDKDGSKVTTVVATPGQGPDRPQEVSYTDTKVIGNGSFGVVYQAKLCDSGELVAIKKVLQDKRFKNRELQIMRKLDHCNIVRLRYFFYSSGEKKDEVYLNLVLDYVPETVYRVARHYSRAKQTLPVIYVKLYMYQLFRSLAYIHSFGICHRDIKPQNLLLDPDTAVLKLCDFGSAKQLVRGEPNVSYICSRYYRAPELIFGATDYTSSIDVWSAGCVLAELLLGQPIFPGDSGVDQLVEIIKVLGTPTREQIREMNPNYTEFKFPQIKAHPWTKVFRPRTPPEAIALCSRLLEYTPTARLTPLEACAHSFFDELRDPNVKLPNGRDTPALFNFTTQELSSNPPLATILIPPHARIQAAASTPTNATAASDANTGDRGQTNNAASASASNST
Experimental: as §1

Row | SMILES | inhibition at 10 µM (CDK2/CycA) [%] | inhibition at 10 µM (CK1-alpha) [%] | inhibition at 10 µM (Kit) [%] | inhibition at 10 µM (cMet) [%] | inhibition at 10 µM (ROCK2) [%] | inhibition at 10 µM (P56Lck) [%] | melting point [°C] | inhibition at 10 µM (Jnk1a1) [%] | inhibition at 10 µM (RSK1) [%] | inhibition at 10 µM (MAPK-ERK1) [%] | inhibition at 10 µM (AKT1/PKBa) [%] | inhibition at 10 µM (PDGFR-beta) [%] | inhibition at 10 µM (c-Src) [%] | inhibition at 10 µM (EGFR) [%] | inhibition at 10 µM (P70S6K) [%] | inhibition at 10 µM (c-Raf) [%] | inhibition at 10 µM (Abl) [%] | inhibition at 10 µM (SRPK1) [%] | inhibition at 10 µM (InsR) [%] | inhibition at 10 µM (IKK-beta) [%] | other results
1 | Nc1cccc(Nc2nc(C3CC3)nc3sc4c(c23)CCCC4)c1 [Compound 12, N-(2-Cyclopropyl-5,6,7,8-tetrahydro-benzo[4,5]thieno[2,3-d]pyrimidin-4-yl)-benzene-1,3-diamine] | -8 | -3 | -8 | -6 | 5 | 9 | 185.9 | -5 | 0 | 0 | -13 | -11 | 4 | 5 | 9 | -3 | -13 | 21 | 22 | 9 | inhibition at 10 µM (GSK-3beta): 0%
2 | Oc1cccc(Nc2nc(C3CC3)nc3sc4c(c23)CCCC4)c1 [Compound 10, 3-(2-Cyclopropyl-5,6,7,8-tetrahydro-benzo[4,5]thieno[2,3-d]pyrimidin-4-ylamino)-Phenol] | -11 | 4 | -12 | 3 | 6 | 3 | 239.7 | -12 | -12 | 9 | 0 | -5 | 3 | 23 | 6 | -3 | -2 | 18 | 2 | 10 | inhibition at 10 µM (GSK-3beta): -8%
3 | Brc1cccc(Nc2ncnc3sc4ccccc4c23)c1 [Compound 23, Benzo[4,5]thieno[2,3-d]pyrimidin-4-yl-(3-bromo-phenyl)-amine] | 12 | 7 | 6 | 4 | 2 | 4 | 160 | -10 | -4 | 8 | 9 | 10 | 7 | 99 | -1 | 3 | -10 | 6 | 4 | -5 | IC50 (EGFR): 8.08 nM; inhibition at 10 µM (GSK-3beta): -3%
4 | O=[N+]([O-])c1cccc(Nc2nc(C3CC3)nc3sc4c(c23)CCCC4)c1 [Compound 13, (2-Cyclopropyl-5,6,7,8-tetrahydro-benzo[4,5]thieno[2,3-d]pyrimidin-4-yl)-(3-nitro-phenyl)-amine] | -18 | 0 | -12 | -4 | 3 | 12 | 211.7 | -9 | -18 | -6 | -2 | -14 | 1 | 26 | 9 | -7 | -15 | 11 | 9 | -9 | inhibition at 10 µM (GSK-3beta): -6%
5 | Brc1cccc(Nc2ncnc3sc4c(c23)CCCC4)c1 [Compound 3, (3-Bromo-phenyl)-(5,6,7,8-tetrahydro-benzo[4,5]thieno[2,3-d]pyrimidin-4-yl)-amine] | 4 | 17 | -2 | -8 | 12 | 17 | 169 | 4 | 23 | 0 | -27 | 1 | 17 | 100 | 4 | -4 | -36 | 8 | -9 | 11 | IC50 (EGFR): 2.61 nM; inhibition at 10 µM (GSK-3beta): -10%
6 | Fc1cccc(Nc2nc(C3CC3)nc3sc4ccccc4c23)c1 [Compound 16, (2-Cyclopropyl-benzo[4,5]thieno[2,3-d]pyrimidin-4-yl)-(3-fluoro-phenyl)-amine] | -2 | 0 | -1 | 0 | 9 | 7 | 193 | -4 | 2 | 6 | -7 | -3 | 2 | 60 | 8 | -4 | 3 | 10 | 2 | -4 | inhibition at 10 µM (GSK-3beta): 1%
